From patent publication US20220054425A1, “NANOCAPSULES COATED WITH CHITOSAN AND USE THEREOF” (SKINMED CO., LTD., priority 2018, published 2022)

Test: Skin permeability, Franz diffusion cell system
Assay type: in vitro ADME
Conditions: human cadaver skin, fluorescence, up to 24 hours
Description: In a Franz diffusion cell system, a formulation including a drug is applied to a donor chamber while a receptor chamber is filled with physiological saline such as PBS (phosphate buffered saline), with a permeable layer, such as a permeable membrane, animal skin or cell culture skin, fixed between the donor chamber and the receptor chamber. Skin permeability can be determined by measuring the amount of the drug diffusing from the donor chamber to the receptor chamber.
In a Franz diffusion cell system, 5 ml of PBS (pH 7.4 containing 0.05% polysorbate 80) was added to the receptor chamber, a human cadaver skin with a size of 1.5×1.5 cm was fixed between the receptor chamber and the donor chamber, and each sample was placed in a donor chamber. The conditions of 37° C. and 600 rpm were set in the receptor chamber and 500 μl of the sample was recovered each time at sample times of 0.5, 1, 2, 4, 8, 12, 18, and 24 hours. The drug passing through the skin was quantitated according to time by HPLC. The result is depicted in FIG. 18.
To a donor chamber, chitosan-coated nanocapsules containing 2 wt % of Nile red (Nile red@ChiNC) were added in an amount of 2 mg/ml. As a control, Nile red alone, or Nile red-containing nanocapsules without a chitosan coating (Nile red@PluNC) were employed. […] Fluorescence in the samples taken at the predetermined times was measured. […]

CCN(CC)c1ccc2nc3c4ccccc4c(=O)cc-3oc2c1 [Nile red]
skin permeability of Nile red: almost did not penetrate into the skin
